Reference: patent US20240148821A1, “PHARMACEUTICAL USE OF CYCLIC PEPTIDE COMPOUND” (CHUGAI SEIYAKU KABUSHIKI KAISHA, priority 2021, published 2024)
Bridge positions count the residues as written; N and C are the ends. Square brackets hold non-standard residues; d marks the D form. Peptide text beside a SMILES is read from it. * marks the point of attachment. hPhe(3-Cl-4-CF3) = N[C@@H](CCc1ccc(C(F)(F)F)c(Cl)c1)C(=O)O; hPhe(4-CF3) = N[C@@H](CCc1ccc(C(F)(F)F)cc1)C(=O)O; NMeAla(4-thiazolyl) = CN[C@@H](Cc1cscn1)C(=O)O; Thiomorpholino(1,1-dioxo) = O=S1(=O)CCN(*)CC1; NMePhe(4-Cl) = CN[C@@H](Cc1ccc(Cl)cc1)C(=O)O; NMePhe(4-Me) = CN[C@@H](Cc1ccc(C)cc1)C(=O)O; NMeGly(cPent) = CN[C@H](C(=O)O)C1CCCC1; Phe(3-I) = N[C@@H](Cc1cccc(I)c1)C(=O)O; NMeCha = CN[C@@H](CC1CCCCC1)C(=O)O; NMeChg = CN[C@H](C(=O)O)C1CCCCC1; NMeF = CN[C@@H](Cc1ccccc1)C(=O)O; NMeD = CN[C@@H](CC(=O)O)C(=O)O; NMeL = CN[C@@H](CC(C)C)C(=O)O; dNMeAbu = CC[C@@H](NC)C(=O)O; NMeV = CN[C@H](C(=O)O)C(C)C; d(β3hA) = C[C@@H](N)CC(=O)O; dIva = CC[C@@](C)(N)C(=O)O; Pip = O=C(O)[C@@H]1CCCCN1; NMeA = CN[C@@H](C)C(=O)O; NMeAib = CNC(C)(C)C(=O)O; Piperidide = C1CCN(*)CC1; Ac5c = NC1(C(=O)O)CCCC1; Aze = O=C(O)[C@@H]1CCN1; Cyclobutyl = C1CC(*)C1; Nleu = CC(C)CNCC(=O)O; Sar = CNCC(=O)O

The compounds below were run on Human pancreatic cancer cell line AsPC-1 (G12D mutation Kras) (assay: AsPC-1 cell growth inhibition (AsPC-1 CGI)). Conditions: read-out: AsPC-1 cell growth inhibition, 50% growth inhibitory concentration (IC50 value); 96 hours, CellTiter-Glo, values classified in ranges.
Format: cell-based
Method: Test compounds were serially dilated with dimethyl sulfoxide, and 200 nL was then dispensed to a U-bottom 96-well plate using Labcyte Echo. […] The cell suspension was dispensed to a. plate containing a test compound at 100 μL per well and incubated at 37° C. in a 5% carbon dioxide gas incubator. 96 hours later, 80 μL of CellTiter-Glo (Promega) was added to each well and fluorescence was measured.

Compound	IC50 [nM]
CC[C@H](C)[C@@H]1NC(=O)[C@H](CC(C)C)N(C)C(=O)C[C@@H](C(=O)N2CCCCC2)N(C)C(=O)[C@H](C2CCCCC2)N(C)C(=O)C2(CCCC2)NC(=O)[C@@H]2CCCN2C(=O)[C@H](CCc2ccc(C(F)(F)F)c(Cl)c2)NC(=O)CN(C)C(=O)[C@H](CC2CCCCC2)N(C)C(=O)[C@H](C)N(C)C(=O)CN(C)C1=O [Compound 1186] ([NMeL]I[Sar][NMeA][NMeCha][Sar][hPhe(3-Cl-4-CF3)]P[Ac5c][NMeChg][NMeD]-Piperidide; lactam N-11)	> 500
CC[C@H](C)[C@@H]1NC(=O)[C@H](CC(C)C)N(C)C(=O)C[C@@H](C)NC(=O)[C@H](C(C)C)N(C)C(=O)[C@@](C)(CC)NC(=O)[C@@H]2CCCN2C(=O)[C@H](CCc2ccc(C(F)(F)F)c(Cl)c2)NC(=O)CN(C)C(=O)[C@H](CC2CCCCC2)N(C)C(=O)CN(C)C(=O)CN(C)C1=O [Compound 275] (cyclo(I[Sar][Sar][NMeCha][Sar][hPhe(3-Cl-4-CF3)]P[dIva][NMeV][d(β3hA)][NMeL]))	> 500
CC[C@H](C)[C@@H]1NC(=O)[C@H](CC(C)C)N(C)C(=O)C[C@@H](C(=O)N2CCCCC2)N(C)C(=O)[C@H](C2CCCCC2)N(C)C(=O)C2(CCCC2)NC(=O)[C@H](Cc2cscn2)N(C)C(=O)[C@H](CCc2ccc(C(F)(F)F)c(Cl)c2)NC(=O)CN(C)C(=O)[C@H](CC2CCCCC2)N(C)C(=O)CN(C)C(=O)CN(C)C1=O [Compound 500] ([NMeL]I[Sar][Sar][NMeCha][Sar][hPhe(3-Cl-4-CF3)][NMeAla(4-thiazolyl)][Ac5c][NMeChg][NMeD]-Piperidide; lactam N-11)	> 500
CC[C@H](C)[C@@H]1NC(=O)[C@@H]2CCCCN2C(=O)C[C@@H](C)NC(=O)[C@H](C(C)C)N(C)C(=O)[C@H](Cc2ccccc2)N(C)C(=O)[C@H](CC(C)C)N(C)C(=O)[C@H](CCc2ccc(C(F)(F)F)cc2)NC(=O)CN(C)C(=O)[C@H](Cc2ccc(Cl)cc2)N(C)C(=O)CN(C)C(=O)CN(C)C1=O [Compound 1110] (cyclo(I[Sar][Sar][NMePhe(4-Cl)][Sar][hPhe(4-CF3)][NMeL][NMeF][NMeV][d(β3hA)][Pip]))	> 500
CC[C@H](C)[C@@H]1NC(=O)[C@H](CC(C)C)N(C)C(=O)C[C@@H](C(=O)N2CCCCC2)N(C)C(=O)[C@H](CC(C)C)NC(=O)C(C)(C)N(C)C(=O)[C@H](Cc2ccc(OC)cc2)NC(=O)[C@H](Cc2cccc(I)c2)NC(=O)CN(C)C(=O)[C@H](Cc2ccc(C)cc2)N(C)C(=O)[C@@H]2CCN2C(=O)[C@H](C)N(C)C1=O [Compound 703] ([NMeL]I[NMeA][Aze][NMePhe(4-Me)][Sar][Phe(3-I)]Y(Me)[NMeAib]L[NMeD]-Piperidide; lactam N-11)	> 500
CC[C@H](C)[C@@H]1NC(=O)[C@H](CC(C)C)N(C)C(=O)C[C@@H](C)NC(=O)[C@H](C(C)C)N(C)C(=O)C2(CCCC2)NC(=O)[C@@H]2CCCN2C(=O)[C@H](CCc2ccc(C(F)(F)F)c(Cl)c2)NC(=O)CN(C)C(=O)[C@H](CC2CCCCC2)N(C)C(=O)CN(C)C(=O)CN(CC(C)C)C1=O [Compound 970] (cyclo([Ac5c][NMeV][d(β3hA)][NMeL]I[Nleu][Sar][NMeCha][Sar][hPhe(3-Cl-4-CF3)]P))	> 500
CC[C@@H]1C(=O)NC2(CCCC2)C(=O)N(C)[C@@H](C2CCCC2)C(=O)N(C)[C@H](C(=O)N2CCCCC2)CC(=O)N(C)[C@@H](CC(C)C)C(=O)N[C@@H]([C@@H](C)CC)C(=O)N(C)[C@@H](C)C(=O)N2CC[C@H]2C(=O)N(C)[C@@H](CC2CCCCC2)C(=O)N(C)CC(=O)N[C@@H](CCc2ccc(C(F)(F)F)c(Cl)c2)C(=O)N1C [Compound 1441] ([NMeL]I[NMeA][Aze][NMeCha][Sar][hPhe(3-Cl-4-CF3)][dNMeAbu][Ac5c][NMeGly(cPent)][NMeD]-Piperidide; lactam N-11)	> 500
CC(C)C[C@H]1C(=O)N[C@@H](COC2CCC2)C(=O)N(C)CC(=O)N(C)CC(=O)N(C)[C@@H](CC2CCCCC2)C(=O)N(C)CC(=O)N[C@@H](CCc2ccc(C(F)(F)F)c(Cl)c2)C(=O)N2CCC[C@H]2C(=O)NC2(CCCC2)C(=O)N(C)[C@@H](C2CCCCC2)C(=O)N(C)[C@H](C(=O)N2CCCCC2)CC(=O)N1C [Compound 226] ([NMeL]S(Cyclobutyl)[Sar][Sar][NMeCha][Sar][hPhe(3-Cl-4-CF3)]P[Ac5c][NMeChg][NMeD]-Piperidide; lactam N-11)	> 500
CC[C@H](C)[C@@H]1NC(=O)[C@H](CC(C)C)N(C)C(=O)C[C@@H](C(=O)N2CCS(=O)(=O)CC2)N(C)C(=O)[C@H](C(C)C)N(C)C(=O)C2(CCCC2)NC(=O)[C@@H]2CCCN2C(=O)[C@H](CCc2ccc(C(F)(F)F)c(Cl)c2)NC(=O)CN(C)C(=O)[C@H](CC2CCCCC2)N(C)C(=O)[C@@H]2CCN2C(=O)[C@H](C)N(C)C1=O [Compound 1238] ([NMeL]I[NMeA][Aze][NMeCha][Sar][hPhe(3-Cl-4-CF3)]P[Ac5c][NMeV][NMeD]-{Thiomorpholino(1,1-dioxo)}; lactam N-11)	> 500
CC[C@H](C)[C@@H]1NC(=O)[C@H](CC(C)C)N(C)C(=O)C[C@@H](C(=O)N(C)C)N(C)C(=O)[C@H](C2CCCC2)N(C)C(=O)[C@H](C)NC(=O)[C@@H](C)NC(=O)[C@H](CCc2ccc(C(F)(F)F)c(Cl)c2)NC(=O)CN(C)C(=O)[C@H](CC2CCCCC2)N(C)C(=O)[C@@H]2CCN2C(=O)[C@H](C)N(C)C1=O [Compound 736] ([NMeL]I[NMeA][Aze][NMeCha][Sar][hPhe(3-Cl-4-CF3)][dA]A[NMeGly(cPent)][NMeD]-NMe2; lactam N-11)	> 500
